Source: patent US8293513B2, “Histone deacetylase inhibitors” (Georgetown University, priority 2007, dated 2012)
Read-outs that look alike come from different tables or passages of the source.

Columns and labels:
[1] = target: HDAC1 (Homo sapiens, UniProt Q13547); test: HDAC isoform inhibition assay (Fluor de Lys, purified protein); format: biochemical
[2] = target: T1, HDAC6 (Homo sapiens, UniProt Q9UBN7); test: as above; format: biochemical
T1 sequence (Q9UBN7 1-1215): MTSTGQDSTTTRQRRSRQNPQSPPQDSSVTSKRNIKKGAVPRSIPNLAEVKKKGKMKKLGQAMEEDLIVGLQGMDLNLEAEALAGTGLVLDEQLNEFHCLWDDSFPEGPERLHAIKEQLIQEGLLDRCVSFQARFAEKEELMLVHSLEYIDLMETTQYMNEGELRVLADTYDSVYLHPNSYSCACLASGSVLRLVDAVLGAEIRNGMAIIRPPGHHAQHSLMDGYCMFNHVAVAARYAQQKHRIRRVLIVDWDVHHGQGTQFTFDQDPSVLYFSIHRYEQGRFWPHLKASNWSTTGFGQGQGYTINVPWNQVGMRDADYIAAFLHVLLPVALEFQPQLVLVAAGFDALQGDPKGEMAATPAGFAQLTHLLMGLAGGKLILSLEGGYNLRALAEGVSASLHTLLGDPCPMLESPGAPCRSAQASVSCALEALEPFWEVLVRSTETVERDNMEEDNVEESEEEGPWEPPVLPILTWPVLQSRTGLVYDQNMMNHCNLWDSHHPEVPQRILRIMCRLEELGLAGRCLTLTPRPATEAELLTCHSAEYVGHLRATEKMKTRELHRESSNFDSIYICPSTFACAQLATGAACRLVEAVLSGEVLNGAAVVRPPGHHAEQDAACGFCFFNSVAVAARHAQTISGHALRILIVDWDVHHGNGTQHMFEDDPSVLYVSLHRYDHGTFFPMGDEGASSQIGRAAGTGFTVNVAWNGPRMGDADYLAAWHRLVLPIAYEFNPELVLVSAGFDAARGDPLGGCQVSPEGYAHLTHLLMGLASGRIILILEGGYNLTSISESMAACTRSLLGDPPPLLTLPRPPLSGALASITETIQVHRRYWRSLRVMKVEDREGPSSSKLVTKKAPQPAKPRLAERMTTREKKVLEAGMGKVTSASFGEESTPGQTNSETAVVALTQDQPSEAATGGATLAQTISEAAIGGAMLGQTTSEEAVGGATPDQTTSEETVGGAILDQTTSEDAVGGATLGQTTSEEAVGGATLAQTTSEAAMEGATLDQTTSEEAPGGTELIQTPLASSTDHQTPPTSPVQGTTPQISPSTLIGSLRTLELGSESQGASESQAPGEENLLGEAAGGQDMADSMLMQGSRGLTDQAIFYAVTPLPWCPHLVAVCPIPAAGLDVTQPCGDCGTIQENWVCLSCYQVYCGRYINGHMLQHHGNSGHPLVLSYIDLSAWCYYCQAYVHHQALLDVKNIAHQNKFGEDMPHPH

[3] = target: HDAC3 (Homo sapiens, UniProt O15379); test: as above; format: biochemical
Chain of HDAC3 (O15379 whole entry, species assumed): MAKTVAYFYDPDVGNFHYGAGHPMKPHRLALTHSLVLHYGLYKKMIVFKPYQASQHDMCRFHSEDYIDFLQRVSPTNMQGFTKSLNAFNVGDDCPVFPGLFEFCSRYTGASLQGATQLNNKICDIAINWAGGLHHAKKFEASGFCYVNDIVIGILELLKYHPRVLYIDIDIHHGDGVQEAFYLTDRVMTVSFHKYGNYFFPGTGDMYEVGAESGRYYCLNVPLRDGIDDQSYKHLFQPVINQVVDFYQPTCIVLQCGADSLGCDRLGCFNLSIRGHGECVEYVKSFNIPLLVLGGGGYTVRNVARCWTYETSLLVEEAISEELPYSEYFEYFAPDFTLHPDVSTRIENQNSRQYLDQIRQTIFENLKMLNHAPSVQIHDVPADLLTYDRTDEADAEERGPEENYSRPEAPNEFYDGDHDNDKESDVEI
Chain of HDAC3 (O75376 395-489 partner limits assumed, species assumed): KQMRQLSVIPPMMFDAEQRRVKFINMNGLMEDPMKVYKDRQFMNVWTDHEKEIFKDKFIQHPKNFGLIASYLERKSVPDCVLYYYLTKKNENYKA

[4] = target: HeLa nuclear extracts (histone deacetylase); format: biochemical; settings: pan-HDAC inhibition assay
Procedure: Reactions were stopped after 15 min with Fluor de Lys Developer. […] The reaction was performed in triplicate for each sample. Each point represents the mean±SD of replicates.

[5] = target: HDAC2 (Homo sapiens, UniProt Q92769); test: HDAC isoform inhibition assay (Fluor de Lys, purified protein); format: biochemical
Chain of HDAC2 (Q92769 whole entry, species assumed, canonical isoform): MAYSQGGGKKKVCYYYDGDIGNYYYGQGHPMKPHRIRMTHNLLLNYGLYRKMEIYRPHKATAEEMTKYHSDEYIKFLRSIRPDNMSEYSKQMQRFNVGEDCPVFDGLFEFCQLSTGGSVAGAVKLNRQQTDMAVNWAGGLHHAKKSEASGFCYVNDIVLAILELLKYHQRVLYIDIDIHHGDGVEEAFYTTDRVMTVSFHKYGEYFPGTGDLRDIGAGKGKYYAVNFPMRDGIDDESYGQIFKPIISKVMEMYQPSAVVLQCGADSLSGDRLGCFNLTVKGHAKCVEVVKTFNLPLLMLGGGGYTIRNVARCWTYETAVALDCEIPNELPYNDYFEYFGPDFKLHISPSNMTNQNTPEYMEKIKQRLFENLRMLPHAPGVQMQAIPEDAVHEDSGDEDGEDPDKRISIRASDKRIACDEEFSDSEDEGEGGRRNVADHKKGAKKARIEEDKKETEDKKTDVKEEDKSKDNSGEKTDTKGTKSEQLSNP

[6] = target: HDAC4 (Homo sapiens, UniProt P56524); settings: PC3 cells, 1 μM, 24 hours (FIG. 6)
Chain of HDAC4 (P56524 whole entry): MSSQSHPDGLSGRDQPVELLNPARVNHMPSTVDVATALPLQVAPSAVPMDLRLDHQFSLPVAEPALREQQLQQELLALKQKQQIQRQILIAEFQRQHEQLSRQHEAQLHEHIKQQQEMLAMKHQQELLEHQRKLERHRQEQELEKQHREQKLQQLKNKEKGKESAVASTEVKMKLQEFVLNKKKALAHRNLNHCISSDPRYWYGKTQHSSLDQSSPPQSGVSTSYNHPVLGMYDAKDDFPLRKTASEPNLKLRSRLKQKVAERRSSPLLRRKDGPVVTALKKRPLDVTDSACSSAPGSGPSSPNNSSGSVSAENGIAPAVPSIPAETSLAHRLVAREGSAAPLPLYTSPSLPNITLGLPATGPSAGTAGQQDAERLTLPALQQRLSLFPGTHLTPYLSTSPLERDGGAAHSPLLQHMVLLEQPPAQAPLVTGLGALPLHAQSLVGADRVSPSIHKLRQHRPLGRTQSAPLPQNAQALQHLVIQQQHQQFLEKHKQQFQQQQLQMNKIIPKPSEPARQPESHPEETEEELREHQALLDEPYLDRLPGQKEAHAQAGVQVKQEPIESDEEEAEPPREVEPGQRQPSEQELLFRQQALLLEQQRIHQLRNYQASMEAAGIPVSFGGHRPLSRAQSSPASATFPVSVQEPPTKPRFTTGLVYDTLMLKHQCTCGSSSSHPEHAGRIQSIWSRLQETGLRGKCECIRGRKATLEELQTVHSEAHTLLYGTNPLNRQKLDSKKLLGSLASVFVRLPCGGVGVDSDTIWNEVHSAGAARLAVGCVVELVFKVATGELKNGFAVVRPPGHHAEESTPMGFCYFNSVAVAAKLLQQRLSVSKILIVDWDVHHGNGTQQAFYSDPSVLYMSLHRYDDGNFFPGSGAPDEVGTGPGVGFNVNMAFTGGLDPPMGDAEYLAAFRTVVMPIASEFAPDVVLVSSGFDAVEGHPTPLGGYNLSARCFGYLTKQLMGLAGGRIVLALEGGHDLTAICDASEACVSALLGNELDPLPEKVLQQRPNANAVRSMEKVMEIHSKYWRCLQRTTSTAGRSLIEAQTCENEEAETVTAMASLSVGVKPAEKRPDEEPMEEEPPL
Procedure: Human prostate cancer PC3 cells were cultured in Dulbecco's Modified Eagle's Medium (DMEM) with 5% serum at 37° C. over night. […] Control cells were incubated in the absence of test compound.
After 24 hours, the cells were washed with phosphate-buffered saline (1×) one time, and fixed with 4% percent of paraformaldehyde for 15 min. Non specific binding was blocked with 10% normal goat serum in phosphate-buffered saline containing 0.2% tween-20 (sigma aldrich P7949) for 1 hour. Cells were treated with mouse monoclonal anti-HDAC4 antibody (Sigma Aldrich H0163) 1:200 dilution in 5% goat serum in PBS for 1 hour at room temperature. The cells were washed three times with phosphate buffered saline (1×). […] The cells were washed with phosphate-buffered saline (1×) three times. Vecta shield mounting medium for florescence with DIPA (Vector laboratory H-1200) were loaded on the cells and covered with cover glass. The cells were then treated with HDAC4 antibody to visualize HDAC4 and with 4′,6-diamidino-2-phenylindole (DAPI) to visualize the nuclei.
Fluorescence microscopy was used to observe the immunohistostaining results.

[7] = tested on: PC-3 cells; test: Cell cycle distribution (propidium iodide, FACS); format: cell-based; settings: PC-3, 24 hours after adding the compound
Procedure: (§1) LNCap and PC-3 cells were incubated in the presence or absence of compound. The cells were harvested at the indicated time points after addition of compound then washed twice with cold phosphate-buffered saline. Cells (1-2×10^6) were resuspended in 0.5 ml of ice-cold phosphate-buffered saline, and single cell suspension was verified microscopically. The cell suspension was gradually mixed with ice-cold absolute ethanol to the final volume of 2.0 ml, and cooled on ice at least for 20 min before staining with propidium iodide. The cell cycle distributions were measured in a fluorescence-activated cell sorter from Becton Dickinson. DNA content was quantified using ModFit LT 3.0 software (Verity Software House, Inc.).

[8] = tested on: PC-3 (prostate cancer); test: Cell growth inhibition (CellTiter 96 AQueous One, MTS); format: cell-based; settings: Homo sapiens, PC3 cells, 48 hours, read-out: Proliferation IG50 PC3
Procedure: (§2) The cell lines used were PC-3 (prostate cancer), C42 (androgen-independent prostate cancer), LNCap (androgen-dependent prostate cancer), SQ20B (squamous cell carcinoma), MCF7 (breast cancer) and MDA-231 (breast cancer).
(§3) Cells were seeded at 5,000 per well in […] of growing medium in 96-well tissue culture plates. At 24 hours after seeding, a solution of the compound or DMSO vehicle control were added to each well to a total volume of […] (three replicates per concentration), and incubated for 48 hours at 37° C. Growth inhibition was determined using CellTiter 96® AQueous One Solution Cell Proliferation according to manufacturer's instructions (Technical Bulletin: CellTiter 96® AQueous One Solution Cell Proliferation Assay. Instructions for Use of Products G3580, G3581 and G3582; Promega, Inc. Madison, Wis., Revised 4/2005), and the absorbance measured at 490 nm on a microplate reader. The CellTiter 96® AQueous One Solution Cell Proliferation Assay is a colorimetric method for determining the number of viable cells in proliferation, cytotoxicity or chemosensitivity assays and contains a tetrazolium compound [3-(4,5-dimethylthiazol-2-yl)-5-(3-carboxymethoxyphenyl)-2-(4-sulfophenyl)-2H-tetrazolium, inner salt; “MTS”] and an electron coupling reagent (phenazine ethosulfate; PES). The MTS tetrazolium compound (Owen's reagent) is bioreduced by cells into a colored formazan product that is soluble in tissue culture medium. Assays are performed by adding a small amount of the CellTiter 96® AQueous One Solution Reagent directly to culture wells, incubating for 1-4 hours and then recording the absorbance at 490 nm with a 96-well plate reader. The quantity of formazan product as measured by the absorbance at 490 nm is directly proportional to the number of living cells in culture.
(§4) The 50% growth inhibition (IG50) was calculated as the compound concentration required to reduce cell number by 50% compared with control.

[9] = tested on: SQ20B (squamous cell carcinoma); test: as above; format: cell-based; settings: Homo sapiens; SQ20B cells, 48 hours; read-out: Proliferation IG50 SQ20B
Procedure: as §2, §3, §4

[10] = tested on: LNCap (androgen-dependent prostate cancer); test: as above; format: cell-based; settings: Homo sapiens; LNCap cells, 48 hours; read-out: Proliferation IG50 LNCap
Procedure: as §2, §3, §4

[11] = tested on: MDA-231 (breast cancer); test: as above; format: cell-based; settings: Homo sapiens, MDA-MB-231; MDA-231 cells, 48 hours; read-out: Proliferation IG50 MDA-231
Procedure: as §2, §3, §4

[12] = tested on: MCF7 (breast cancer); test: as above; format: cell-based; settings: Homo sapiens; MCF7 cells, 48 hours; read-out: Proliferation IG50 MCF7
Procedure: as §2, §3, §4

[13] = tested on: C42 (androgen-independent prostate cancer); test: as above; format: cell-based; settings: C4-2; C42 cells, 48 hours; read-out: Proliferation IG50 C42
Procedure: as §2, §3, §4

[14] = tested on: LNCap cells; test: Cell cycle distribution (propidium iodide, FACS); format: cell-based; settings: 24 hours after adding the compound
Procedure: as §1

[15] = tested on: PC-3 cells; test: Fluorescence imaging of compound localization in cells; format: cell-based, human; settings: 20 μM
Procedure: (§5) Human prostate cancer cell lines PC-3 and DU145 cells were plated down onto glass slides at a density of 500,000 per slide and incubated overnight. […] The slides were then washed three times with phosphate-buffered saline. The cells were then fixed with a 4% solution of formaldehyde for ten minutes, washed four times with phosphate-buffered saline and mounted. For slides with nuclear staining, cells were treated with propidium iodide (1:1000) for 4 minutes after fixation, washed four times with PBS and mounted.
(§6) Propidium Iodide was imaged with an excitation wavelength of 535 and an emission wavelength of 617. Images were taken at 63×.

[16] = tested on: DU145 cells; test: as above; format: cell-based, human; settings: DU-145 cells, for 60 minutes (FIG. 2)
Procedure: as §5, §6

[17] = tested on: A549 cells; test: Imaging of histone acetylation; format: cell-based; settings: 20 μM, 60 minutes (FIG. 5), versus untreated control
Procedure: Images A, B, C and D show the cells after treatment with the histone deacetylase inhibitor (20 μM) for 60 minutes. […] Image C is the DIC image.

[18] = Emission and excitation spectra; format: physicochemical
Procedure: Measurement of the emission and excitation spectra for the compound of Example 1 was performed to confirm the corresponding range for fluorescent visualization in cancer cells and to confirm the fluorescent property of the compound.

[19] = target: T2, HDAC8 (Homo sapiens, UniProt Q9BY41); test: biochemical
T2 sequence (Q9BY41 1-377): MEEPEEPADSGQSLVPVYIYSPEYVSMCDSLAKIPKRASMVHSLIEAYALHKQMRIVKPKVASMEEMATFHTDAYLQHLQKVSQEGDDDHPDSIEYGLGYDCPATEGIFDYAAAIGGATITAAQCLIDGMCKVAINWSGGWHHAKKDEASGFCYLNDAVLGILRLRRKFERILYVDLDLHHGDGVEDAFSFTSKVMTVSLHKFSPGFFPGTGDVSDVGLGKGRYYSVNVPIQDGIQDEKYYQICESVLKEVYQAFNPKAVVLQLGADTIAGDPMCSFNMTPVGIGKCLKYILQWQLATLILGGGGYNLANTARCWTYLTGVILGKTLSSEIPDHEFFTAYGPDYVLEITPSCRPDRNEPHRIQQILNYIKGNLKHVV

[20] = tested on: A549 (lung cancer) cells; test: Imaging of tubulin acetylation; format: cell-based; settings: 20 μM, 60 minutes (FIG. 4), versus untreated control
Procedure: Images A, B, and C show the cells after treatment with the histone deacetylase inhibitor (20 μM) for 60 minutes. […] Image C is the DIC image, while image D is a merger of images A, B, and C.

[21] = HeLa nuclear extracts (Table 2), read-out: HDAC IC50
[22] = HeLa nuclear extracts (Table 3), read-out: pan-HDAC IC50

Chain of HDAC1 (Q13547 whole entry, species assumed, canonical isoform): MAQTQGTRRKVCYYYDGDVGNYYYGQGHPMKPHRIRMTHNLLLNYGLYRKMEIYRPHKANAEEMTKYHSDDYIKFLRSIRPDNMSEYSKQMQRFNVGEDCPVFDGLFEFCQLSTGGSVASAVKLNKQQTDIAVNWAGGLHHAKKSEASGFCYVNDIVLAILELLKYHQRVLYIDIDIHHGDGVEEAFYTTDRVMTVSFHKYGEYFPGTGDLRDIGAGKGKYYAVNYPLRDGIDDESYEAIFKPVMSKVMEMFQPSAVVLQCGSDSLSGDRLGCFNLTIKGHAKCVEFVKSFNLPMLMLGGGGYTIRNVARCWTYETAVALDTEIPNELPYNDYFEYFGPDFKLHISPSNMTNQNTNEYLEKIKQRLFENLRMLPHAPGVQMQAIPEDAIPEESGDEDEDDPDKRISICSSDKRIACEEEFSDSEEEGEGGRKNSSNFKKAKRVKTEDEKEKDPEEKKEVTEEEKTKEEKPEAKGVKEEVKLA

Row | Structure (SMILES) | IC50 [1] | IC50 [2] | IC50 [3] | IC50 [4, 21] | IC50 [4, 22] | IC50 [5] | Cell cycle distribution G1 [7] | Cell cycle distribution G2 [7] | Cell cycle distribution S [7] | other results
1 | CN(C)c1cccc2c(S(=O)(=O)NCCCCCCC(=O)NO)cccc12 [Example 3] | 1.29 µM | 0.0762 µM | 4.89 µM | 0.116 µM | 0.116 µM | 7.4 µM |  |  |  | 
2 | O=C(CCCCCCC(=O)Nc1ccccc1)NO [SAHA, suberoylanilide hydroxamic acid, reference compound] |  |  |  |  |  |  | 72.28% | 13.39% | 14.33% | HDAC4 distribution between cytoplasm and nuclei [6]: traps HDAC4 in the cytoplasm of the cells
3 | CN(C)c1cccc2c(S(=O)(=O)NCCCCC(=O)NO)cccc12 [Example 2] |  |  |  | 0.287 µM |  |  |  |  |  | 
4 | CN(C)c1cccc2c(S(=O)(=O)NCCCCCC(=O)NO)cccc12 [Example 1, 6-(5-(Dimethylamino)naphthalene-1-sulfonamido)-N-hydroxyhexanamide] | 0.956 µM | 0.129 µM | 1.12 µM | 0.125 µM | 0.125 µM | 1.38 µM | 64.35% | 15.74% | 19.91% | IC50 [8]: 0.00154 µM; IC50 [9]: 0.00643 µM; IC50 [10]: 0.00122 µM; IC50 [11]: 0.0122 µM; IC50 [12]: 0.0092 µM; IC50 [13]: 0.00191 µM; Cell cycle distribution G1 [14]: 85.23%; Cell cycle distribution G2 [14]: 5.59%; Cell cycle distribution S [14]: 9.18%; Co-localization with nuclei stained with propidium iodide ([15]; PC3 cells, 60 min (FIG. 3)): does not localize to nuclei; Localization of compound fluorescence in cells ([15]; PC-3 cells, 60 minutes (FIG. 2)): present in the cytoplasm but not the nucleus of cells; Localization of compound fluorescence in cells [16]: seen fluorescing (green fluorescence) in the cytoplasm; Histone acetylation in the nucleus [17]: increased nuclear histone acetylation; Emiss (emission wavelength) [18]: 500 nm; Exc (excitation wavelength) [18]: 320 nm; IC50 [19]: 2.9 µM; Tubulin acetylation in the cytoplasm [20]: increased tubulin acetylation
5 | CN(C)c1cccc2c(S(=O)(=O)NCCCCCCCC(=O)NO)cccc12 [Example 4] |  |  |  | 0.208 µM |  |  |  |  |  | 
